# From ChEMBL document CHEMBL5723583, “Data for DCP probe BAY-9835” (2024)
# Calls of active or inactive are those of the source. The calls are words filed in the database; no cut-off is given here.
# Tests used:
# [1] = target: A disintegrin and metalloproteinase with thrombospondin motifs 7 (Homo sapiens, UniProt Q9UKP4); experiment: Biochemical enzymatic FRET assay (hADAMTS7) ( FRET substrate, HiLyteFluor-488 DELSSMVLELRGLRT-K(QXL520)-E-NH2 (custom synthesis by Anaspec) was used.)
# [2] = target: A disintegrin and metalloproteinase with thrombospondin motifs 4 (Homo sapiens, UniProt O75173); experiment: IC50 of hADAMTS4 at 1.0 µM in the Bayer in-house protease panel
# [3] = target: Disintegrin and metalloproteinase domain-containing protein 8 (Homo sapiens, UniProt P78325); experiment: IC50 of hADAM8 at 1.0 µM in the Bayer in-house protease panel
# [4] = target: Matrix metalloproteinase-14 (Homo sapiens, UniProt P50281); experiment: IC50 of hMMP14 at 1.0 µM in the Bayer in-house protease panel
# [5] = target: Matrix metalloproteinase-15 (Homo sapiens, UniProt P51511); experiment: IC50 of hMMP15 at 1.0 µM in the Bayer in-house protease panel
# [6] = target: Caspase-3 (Homo sapiens, UniProt P42574); experiment: IC50 of Caspase 3 at 1.0 µM in the Bayer in-house protease panel
# [7] = target: Angiotensin-converting enzyme (Homo sapiens) (UniProt P12821); experiment: Inhibition of Peptidase, Angiotensin Converting Enzyme at 10.0 µM in the Eurofins-Panlabs selectivity screen; conditions: Oryctolagus cuniculus; Compound concentration 10.0 uM
# [8] = target: Monoamine oxidase A (MAO-A) (Homo sapiens, UniProt P21397); experiment: Inhibition of Monoamine Oxidase MAO-A at 10.0 µM in the Eurofins-Panlabs selectivity screen; conditions: compound concentration 10 uM
# [9] = target: Nitric oxide synthase 1 (Homo sapiens) (UniProt P29475); experiment: Inhibition of Nitric Oxide Synthase, Neuronal (nNOS) at 10.0 µM in the Eurofins-Panlabs selectivity screen; conditions: Rattus norvegicus; Compound concentration 10.0 uM
# [10] = target: Phosphodiesterase 3 (Homo sapiens) (UniProt Q14432+Q13370); experiment: Inhibition of Phosphodiesterase PDE3 at 10.0 µM in the Eurofins-Panlabs selectivity screen; assay type: protein assay; conditions: Compound concentration 10.0 uM
# [11] = target: cGMP-specific 3',5'-cyclic phosphodiesterase (Homo sapiens) (UniProt O76074); experiment: Inhibition of Phosphodiesterase PDE5 at 10.0 µM in the Eurofins-Panlabs selectivity screen; conditions: Compound concentration 10.0 uM
# [12] = target: Thromboxane-A synthase (Homo sapiens) (UniProt P24557); experiment: Inhibition of Thromboxane Synthase at 10.0 µM in the Eurofins-Panlabs selectivity screen; conditions: Compound concentration 10.0 uM
# [13] = target: Adenosine receptor A1 (Homo sapiens) (UniProt P30542); experiment: Inhibition of Adenosine A1 at 10.0 µM in the Eurofins-Panlabs selectivity screen; conditions: Compound concentration 10.0 uM
# [14] = target: Equilibrative nucleoside transporter 1/2/3/4 (Homo sapiens) (UniProt Q99808+Q7RTT9+Q14542+Q9BZD2); experiment: Inhibition of Transporter, Adenosine at 10.0 µM in the Eurofins-Panlabs selectivity screen; assay type: protein assay; conditions: Compound concentration 10.0 uM
# [15] = target: Alpha-2C adrenergic receptor (Homo sapiens) (UniProt P18825); experiment: Inhibition of Adrenergic alpha2C at 10.0 µM in the Eurofins-Panlabs selectivity screen; conditions: Compound concentration 10.0 uM
# [16] = target: Type-2 angiotensin II receptor (Homo sapiens) (UniProt P50052); experiment: Inhibition of Angiotensin AT2 at 10.0 µM in the Eurofins-Panlabs selectivity screen; conditions: Compound concentration 10.0 uM
# [17] = target: B1 bradykinin receptor (Homo sapiens) (UniProt P46663); experiment: Inhibition of Bradykinin B1 at 10.0 µM in the Eurofins-Panlabs selectivity screen; conditions: Compound concentration 10.0 uM
# [18] = target: Cannabinoid receptor 1 (Homo sapiens) (UniProt P21554); experiment: Inhibition of Cannabinoid CB1 at 10.0 µM in the Eurofins-Panlabs selectivity screen; conditions: Compound concentration 10.0 uM
# [19] = target: Cannabinoid receptor 2 (Homo sapiens) (UniProt P34972); experiment: Inhibition of Cannabinoid CB2 at 10.0 µM in the Eurofins-Panlabs selectivity screen; conditions: Compound concentration 10.0 uM
# [20] = target: D(1A) dopamine receptor (Homo sapiens) (UniProt P21728); experiment: Inhibition of Dopamine D1 at 10.0 µM in the Eurofins-Panlabs selectivity screen; conditions: Compound concentration 10.0 uM
# [21] = target: Estrogen receptor (Homo sapiens) (UniProt P03372); experiment: Inhibition of Estrogen ERalpha at 10.0 µM in the Eurofins-Panlabs selectivity screen; conditions: Compound concentration 10.0 uM
# [22] = target: GABA transporter (Rattus norvegicus) (UniProt P31647+P23978+P31646+P48056); experiment: Inhibition of Transporter, GABA at 10.0 µM in the Eurofins-Panlabs selectivity screen; assay type: protein assay; conditions: Compound concentration 10.0 uM
# [23] = target: T1, GABA-A receptor; anion channel (Rattus norvegicus) (UniProt O09028+P15431+P18506+P18508+P19969+P20236+P23574+P23576+P28471+P28473+P30191+P62813+P63079+P63138+Q91ZM7+Q9ES14); experiment: Inhibition of GABAA, Flunitrazepam, Central at 10.0 µM in the Eurofins-Panlabs selectivity screen; assay type: protein-complex assay; conditions: Compound concentration 10.0 uM
# [24] = target: T1, GABA-A receptor; anion channel (Rattus norvegicus); experiment: Inhibition of GABAA, Chloride Channel, TBOB at 10.0 µM in the Eurofins-Panlabs selectivity screen; assay type: protein-complex assay; conditions: Compound concentration 10.0 uM
# [25] = target: Gamma-aminobutyric acid type B receptor subunit 1 (Homo sapiens) (UniProt Q9UBS5); experiment: Inhibition of GABAB, Non-Selective at 10.0 µM in the Eurofins-Panlabs selectivity screen; conditions: Rattus norvegicus; Compound concentration 10.0 uM
# [26] = target: Glucocorticoid receptor (Homo sapiens) (UniProt P04150); experiment: Inhibition of Glucocorticoid at 10.0 µM in the Eurofins-Panlabs selectivity screen; conditions: Compound concentration 10.0 uM
# [27] = target: Growth hormone secretagogue receptor type 1 (Homo sapiens) (UniProt Q92847); experiment: Inhibition of Growth Hormone Secretagogue (GHS, Ghrelin) at 10.0 µM in the Eurofins-Panlabs selectivity screen; conditions: Compound concentration 10.0 uM
# [28] = target: Motilin receptor (Homo sapiens) (UniProt O43193); experiment: Inhibition of Motilin at 10.0 µM in the Eurofins-Panlabs selectivity screen; conditions: Compound concentration 10.0 uM
# [29] = target: Muscarinic acetylcholine receptor M2 (Homo sapiens) (UniProt P08172); experiment: Inhibition of Muscarinic M2 at 10.0 µM in the Eurofins-Panlabs selectivity screen; conditions: Compound concentration 10.0 uM
# [30] = target: Muscarinic acetylcholine receptor M4 (Homo sapiens) (UniProt P08173); experiment: Inhibition of Muscarinic M4 at 10.0 µM in the Eurofins-Panlabs selectivity screen; conditions: Compound concentration 10.0 uM
# [31] = target: Delta-type opioid receptor (Homo sapiens) (UniProt P41143); experiment: Inhibition of Opiate delta1 (OP1, DOP) at 10.0 µM in the Eurofins-Panlabs selectivity screen; conditions: Compound concentration 10.0 uM
# [32] = target: Kappa-type opioid receptor (Homo sapiens) (UniProt P41145); experiment: Inhibition of Opiate kappa (OP2, KOP) at 10.0 µM in the Eurofins-Panlabs selectivity screen; conditions: Compound concentration 10.0 uM
# [33] = target: 5-hydroxytryptamine receptor 2C (Homo sapiens) (UniProt P28335); experiment: Inhibition of Serotonin (5-Hydroxytryptamine) 5-HT2C at 10.0 µM in the Eurofins-Panlabs selectivity screen; conditions: Compound concentration 10.0 uM
# [34] = target: P2X receptor (Rattus norvegicus) (UniProt P51579+P49653+P51578+Q64663+P47824+P51577+P49654); experiment: Inhibition of Purinergic P2X at 10.0 µM in the Eurofins-Panlabs selectivity screen; assay type: protein assay; conditions: Compound concentration 10.0 uM
# Sequence of Type-2 angiotensin II receptor (Homo sapiens) (P50052 whole entry): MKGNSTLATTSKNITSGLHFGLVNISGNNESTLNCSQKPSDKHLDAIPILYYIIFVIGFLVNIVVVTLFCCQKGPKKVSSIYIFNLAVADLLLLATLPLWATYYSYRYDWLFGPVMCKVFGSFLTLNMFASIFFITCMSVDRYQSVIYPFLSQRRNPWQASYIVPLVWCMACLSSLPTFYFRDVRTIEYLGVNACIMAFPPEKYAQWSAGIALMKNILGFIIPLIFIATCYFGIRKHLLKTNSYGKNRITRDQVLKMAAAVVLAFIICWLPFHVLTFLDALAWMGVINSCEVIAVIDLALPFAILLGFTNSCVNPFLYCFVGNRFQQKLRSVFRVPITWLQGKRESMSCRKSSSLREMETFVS
# Sequence of Disintegrin and metalloproteinase domain-containing protein 8 (P78325 whole entry, the tested form may be a part): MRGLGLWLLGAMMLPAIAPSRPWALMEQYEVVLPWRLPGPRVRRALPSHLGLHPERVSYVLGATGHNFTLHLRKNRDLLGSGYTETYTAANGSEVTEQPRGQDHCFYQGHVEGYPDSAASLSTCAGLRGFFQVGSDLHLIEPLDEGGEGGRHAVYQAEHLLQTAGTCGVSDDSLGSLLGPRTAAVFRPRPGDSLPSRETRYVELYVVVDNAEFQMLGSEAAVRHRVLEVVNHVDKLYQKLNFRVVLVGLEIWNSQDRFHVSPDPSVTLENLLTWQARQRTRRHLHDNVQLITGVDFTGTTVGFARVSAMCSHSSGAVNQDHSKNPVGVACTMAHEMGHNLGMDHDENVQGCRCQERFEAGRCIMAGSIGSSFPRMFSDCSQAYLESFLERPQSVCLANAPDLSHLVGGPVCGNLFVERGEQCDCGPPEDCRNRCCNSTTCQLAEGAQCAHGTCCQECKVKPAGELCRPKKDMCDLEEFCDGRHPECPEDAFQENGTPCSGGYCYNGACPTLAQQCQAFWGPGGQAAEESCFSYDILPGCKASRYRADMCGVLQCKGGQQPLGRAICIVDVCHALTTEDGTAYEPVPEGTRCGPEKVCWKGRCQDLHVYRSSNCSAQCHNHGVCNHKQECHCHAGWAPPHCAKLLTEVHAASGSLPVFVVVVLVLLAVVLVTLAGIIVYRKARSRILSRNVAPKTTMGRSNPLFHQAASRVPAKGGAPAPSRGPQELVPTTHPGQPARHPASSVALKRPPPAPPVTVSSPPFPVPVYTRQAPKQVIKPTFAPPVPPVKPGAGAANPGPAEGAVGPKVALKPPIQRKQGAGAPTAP
# Sequence of Adenosine receptor A1 (Homo sapiens) (P30542 whole entry): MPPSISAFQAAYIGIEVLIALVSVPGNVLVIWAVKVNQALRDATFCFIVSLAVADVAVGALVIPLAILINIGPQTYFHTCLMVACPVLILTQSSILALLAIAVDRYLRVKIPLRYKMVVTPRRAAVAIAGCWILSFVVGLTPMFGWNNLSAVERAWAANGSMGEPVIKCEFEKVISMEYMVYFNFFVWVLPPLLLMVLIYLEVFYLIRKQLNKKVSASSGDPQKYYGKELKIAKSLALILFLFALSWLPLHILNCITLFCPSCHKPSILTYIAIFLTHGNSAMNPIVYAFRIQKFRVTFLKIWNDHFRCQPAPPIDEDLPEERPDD
# Sequence of Angiotensin-converting enzyme (Homo sapiens) (P12821 whole entry): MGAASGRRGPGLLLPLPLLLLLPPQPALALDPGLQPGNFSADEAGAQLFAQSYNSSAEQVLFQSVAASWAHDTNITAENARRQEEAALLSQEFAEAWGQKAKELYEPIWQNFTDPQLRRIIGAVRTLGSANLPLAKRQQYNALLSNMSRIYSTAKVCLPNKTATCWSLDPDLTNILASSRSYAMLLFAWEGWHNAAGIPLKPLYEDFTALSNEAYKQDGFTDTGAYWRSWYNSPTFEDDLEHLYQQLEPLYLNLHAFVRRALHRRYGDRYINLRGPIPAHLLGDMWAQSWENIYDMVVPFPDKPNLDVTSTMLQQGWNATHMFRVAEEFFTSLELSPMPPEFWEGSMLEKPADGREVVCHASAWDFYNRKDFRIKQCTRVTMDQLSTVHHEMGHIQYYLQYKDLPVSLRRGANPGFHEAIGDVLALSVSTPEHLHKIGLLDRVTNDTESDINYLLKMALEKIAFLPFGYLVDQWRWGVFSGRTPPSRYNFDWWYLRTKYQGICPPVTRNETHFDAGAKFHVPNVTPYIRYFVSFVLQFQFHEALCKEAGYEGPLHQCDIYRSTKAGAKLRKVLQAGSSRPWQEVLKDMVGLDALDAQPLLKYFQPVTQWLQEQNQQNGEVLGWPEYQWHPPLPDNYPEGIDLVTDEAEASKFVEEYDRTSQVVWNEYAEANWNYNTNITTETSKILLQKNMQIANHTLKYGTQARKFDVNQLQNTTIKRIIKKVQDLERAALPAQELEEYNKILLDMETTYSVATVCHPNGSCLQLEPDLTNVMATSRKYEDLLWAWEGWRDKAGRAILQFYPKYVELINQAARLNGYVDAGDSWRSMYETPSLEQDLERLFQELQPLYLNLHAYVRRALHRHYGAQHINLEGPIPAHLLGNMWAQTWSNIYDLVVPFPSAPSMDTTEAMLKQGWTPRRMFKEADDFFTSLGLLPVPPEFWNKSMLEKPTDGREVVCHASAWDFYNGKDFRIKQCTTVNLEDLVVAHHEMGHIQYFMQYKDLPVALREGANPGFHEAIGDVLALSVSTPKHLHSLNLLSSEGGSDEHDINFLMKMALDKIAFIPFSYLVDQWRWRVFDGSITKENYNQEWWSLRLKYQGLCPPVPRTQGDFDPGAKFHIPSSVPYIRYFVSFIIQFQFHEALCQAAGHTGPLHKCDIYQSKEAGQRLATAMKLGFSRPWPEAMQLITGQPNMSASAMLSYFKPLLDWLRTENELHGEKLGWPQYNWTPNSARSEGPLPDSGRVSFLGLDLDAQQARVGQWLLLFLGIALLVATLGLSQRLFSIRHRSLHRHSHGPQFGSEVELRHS
# Sequence of Kappa-type opioid receptor (Homo sapiens) (P41145 whole entry): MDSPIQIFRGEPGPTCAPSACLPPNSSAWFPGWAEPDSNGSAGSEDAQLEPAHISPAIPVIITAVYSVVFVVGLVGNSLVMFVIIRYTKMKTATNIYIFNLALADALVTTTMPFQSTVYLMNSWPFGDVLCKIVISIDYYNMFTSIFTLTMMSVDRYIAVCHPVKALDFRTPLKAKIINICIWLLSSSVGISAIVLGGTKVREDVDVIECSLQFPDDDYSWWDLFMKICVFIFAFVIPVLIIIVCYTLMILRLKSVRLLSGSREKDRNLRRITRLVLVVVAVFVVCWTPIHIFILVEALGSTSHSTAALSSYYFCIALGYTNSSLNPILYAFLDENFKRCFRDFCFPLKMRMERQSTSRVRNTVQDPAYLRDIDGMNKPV
# Sequence of Delta-type opioid receptor (Homo sapiens) (P41143 whole entry): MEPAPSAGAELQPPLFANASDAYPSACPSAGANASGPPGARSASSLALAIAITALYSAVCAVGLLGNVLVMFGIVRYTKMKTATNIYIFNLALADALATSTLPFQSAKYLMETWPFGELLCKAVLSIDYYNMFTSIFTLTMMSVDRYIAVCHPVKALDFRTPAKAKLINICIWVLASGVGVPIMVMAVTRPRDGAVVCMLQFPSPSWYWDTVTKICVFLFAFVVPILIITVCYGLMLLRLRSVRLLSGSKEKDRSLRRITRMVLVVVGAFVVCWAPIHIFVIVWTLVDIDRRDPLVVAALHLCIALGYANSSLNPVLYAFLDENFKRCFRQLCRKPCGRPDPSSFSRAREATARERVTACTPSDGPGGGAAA
# Sequence of Motilin receptor (Homo sapiens) (O43193 whole entry): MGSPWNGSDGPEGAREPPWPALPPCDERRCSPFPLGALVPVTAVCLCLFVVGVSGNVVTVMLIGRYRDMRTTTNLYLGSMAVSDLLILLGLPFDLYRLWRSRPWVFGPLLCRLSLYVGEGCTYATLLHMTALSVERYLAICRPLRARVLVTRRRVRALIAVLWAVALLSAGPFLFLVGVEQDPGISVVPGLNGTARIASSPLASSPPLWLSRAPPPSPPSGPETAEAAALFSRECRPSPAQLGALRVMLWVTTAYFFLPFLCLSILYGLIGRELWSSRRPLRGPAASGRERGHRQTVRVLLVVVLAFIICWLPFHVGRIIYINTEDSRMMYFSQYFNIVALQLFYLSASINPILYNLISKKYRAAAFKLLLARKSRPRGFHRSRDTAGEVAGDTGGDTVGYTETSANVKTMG
# Sequence of Estrogen receptor (Homo sapiens) (P03372 whole entry): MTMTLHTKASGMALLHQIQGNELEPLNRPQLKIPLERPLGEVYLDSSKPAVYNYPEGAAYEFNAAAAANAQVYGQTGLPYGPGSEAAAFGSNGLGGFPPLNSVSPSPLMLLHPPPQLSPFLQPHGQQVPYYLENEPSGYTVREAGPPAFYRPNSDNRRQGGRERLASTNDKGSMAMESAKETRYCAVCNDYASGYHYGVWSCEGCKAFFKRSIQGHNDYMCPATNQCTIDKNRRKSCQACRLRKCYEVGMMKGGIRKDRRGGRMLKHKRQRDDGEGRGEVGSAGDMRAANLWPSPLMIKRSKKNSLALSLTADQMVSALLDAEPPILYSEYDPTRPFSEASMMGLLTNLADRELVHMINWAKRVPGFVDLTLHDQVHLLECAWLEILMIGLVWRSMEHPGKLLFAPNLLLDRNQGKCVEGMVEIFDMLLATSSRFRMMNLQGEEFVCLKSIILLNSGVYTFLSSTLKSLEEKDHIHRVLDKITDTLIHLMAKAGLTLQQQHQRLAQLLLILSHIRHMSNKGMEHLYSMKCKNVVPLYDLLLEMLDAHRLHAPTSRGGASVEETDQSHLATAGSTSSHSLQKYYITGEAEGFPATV
# Sequence of Caspase-3 (P42574 29-175 limits assumed): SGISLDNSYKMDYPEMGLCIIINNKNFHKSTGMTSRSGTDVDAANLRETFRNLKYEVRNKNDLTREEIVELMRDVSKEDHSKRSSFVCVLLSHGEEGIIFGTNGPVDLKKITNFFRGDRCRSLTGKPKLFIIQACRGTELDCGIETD
# Sequence of Caspase-3 (P42574 176-277 limits assumed): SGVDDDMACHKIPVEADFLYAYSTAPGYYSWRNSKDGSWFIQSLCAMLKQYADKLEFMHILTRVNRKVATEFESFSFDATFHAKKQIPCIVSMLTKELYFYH
smiles,measurement,setting,value
Cn1nccc1[C@]1(CNC(=O)c2ccc(F)c(F)c2-c2ccc(C(F)(F)F)cc2)NC(=O)NC1=O,IC50,[1],0.006 µM (active)
same,IC50,[2],6.73 µM
same,IC50,[3],2.25 µM
same,IC50,[4],> 100 µM
same,IC50,[5],78.5 µM
same,IC50,[6],> 100 µM
same,inhibition,[7],3%
same,inhibition at 10 µM,[8],0%
same,inhibition,[9],0%
same,inhibition,[10],11%
same,inhibition,[11],-5%
same,inhibition,[12],11%
same,inhibition,[13],-4%
same,inhibition,[14],11%
same,inhibition,[15],-1%
same,inhibition,[16],0%
same,inhibition,[17],1%
same,inhibition,[18],-3%
same,inhibition,[19],-1%
same,inhibition,[20],-1%
same,inhibition,[21],13%
same,inhibition,[22],7%
same,inhibition,[23],-6%
same,inhibition,[24],0%
same,inhibition,[25],3%
same,inhibition,[26],3%
same,inhibition,[27],6%
same,inhibition,[28],3%
same,inhibition,[29],1%
same,inhibition,[30],-6%
same,inhibition,[31],18%
same,inhibition,[32],-4%
same,inhibition,[33],-1%
same,inhibition,[34],0%
